Results taken from US6797819B1, “Alkaloids” (President and Fellows of Harvard College, priority 1998, dated 2004).
“Also recorded” adds a separate entry of the source.

Test system: VSVG-GFP trafficking in BSC1 cells
Assay type: cell-based, monkey

## COc1ccc2c3c1O[C@H]1C[C@@H](O)C=C[C@@]31CCN(C)C2 [galanthamine, reference compound]
  effect on the secretory pathway: no observable effect on the secretory pathway

## COc1ccc(CS[C@@H]2CC(=NOCc3ccccc3)C[C@H]3Oc4c(Br)c(OCC5CC5)cc5c4[C@]32C[C@@H](CO)NC5)cc1 [secramine]
  ability to block protein trafficking from the golgi apparatus to the plasma membrane: block protein trafficking from the golgi apparatus to the plasma membrane
  inhibition of VSVG-GFP movement from the golgi apparatus to the plasma membrane: potent inhibitor of VSVG-GFP movement from the golgi apparatus to the plasma membrane; also recorded: Golgi to PM Blocker
  inhibition of the movement of a specific cellular protein from the golgi apparatus to the plasma membrane: potent inhibitor of the movement of a specific cellular protein from the golgi apparatus to the plasma membrane
